Results on 1 molecule are retold here after ChEMBL document CHEMBL3817811, “Protective effect of α-mangostin against iodixanol-induced apoptotic damage in LLC-PK1 cells” (Bioorg Med Chem Lett, 2016).

Calls of active or inactive are those of the source. The calls are words filed in the database; no cut-off is given here.

The test system of data set [1] is LLC-PK1. The data set is described as follows: Inhibition of JNK phosphorylation in pig LLC-PK1 cells at 2.5 to 5 uM preincubated for 2 hrs followed by iodixanol addition measured after 3 hrs by western blot analysis. It counts as cell-based. The following applies: Sus scrofa.
In data set [2] the test system is LLC-PK1. Briefly: Cytoprotective activity against 25 mg/ml iodixanol-induced cell damage in pig LLC-PK1 cells assessed as restoration of cell viability preincubated for 2 hrs followed by iodixanol addition measured after 3 hrs by MTT assay. It counts as functional, cell-based. The settings on record: Sus scrofa.
For data set [3], the system named is LLC-PK1. Briefly: Cytotoxicity against pig LLC-PK1 cells assessed as reduction in cell viability at 1 to 10 uM incubated for 2 hrs by MTT assay. It counts as cell-based, Sus scrofa. The following applies: llc-pk1, 2 h. A general note: Tetrazolium dyes change colour on reduction, which living cells bring about.
Data set [4] deals with LLC-PK1. The data set is described as follows: Cytoprotective activity against 25 mg/ml iodixanol-induced apoptosis in pig LLC-PK1 cells assessed as reduction in dead cells preincubated for 2 hrs followed by iodixanol addition measured after 3 hrs by annexin V Alexa Fluor 488/propidium iodide staining based cytometry. It counts as functional, cell-based. The settings on record: Sus scrofa.

The test system of data set [5] is LLC-PK1. The data set is described as follows: Cytoprotective activity against 25 mg/ml iodixanol-induced cell damage in pig LLC-PK1 cells assessed as restoration of cell viability at 5 uM preincubated for 2 hrs followed by iodixanol addition measured after 3 hrs by MTT assay relative to control. It counts as functional, Sus scrofa.
In data set [6] the test system is LLC-PK1. The data set is described as follows: Inhibition of p38 phosphorylation in pig LLC-PK1 cells at 2.5 to 5 uM preincubated for 2 hrs followed by iodixanol addition measured after 3 hrs by western blot analysis. In kind it is cell-based. The following applies: Sus scrofa.
Data set [7] concerns LLC-PK1. The data set is described as follows: Cytoprotective activity against 25 mg/ml iodixanol-induced cell damage in pig LLC-PK1 cells assessed as inhibition of caspase-3 enzyme activity using DEVD-pNA substrate at 2.5 to 5 uM preincubated for 2 hrs followed by iodixanol addition and subsequent incubation for 3 hrs followed by substrate addition measured after 1 hr by microplate reader analysis. The following applies: Sus scrofa. In kind it is functional, cell-based.

Data set [8] relates to LLC-PK1. The data set is described as follows: Cytoprotective activity against 25 mg/ml iodixanol-induced cell damage in pig LLC-PK1 cells assessed as inhibition of cleaved caspase-3 expression at 2.5 to 5 uM preincubated for 2 hrs followed by iodixanol addition measured after 3 hrs by western blot analysis. It counts as functional, cell-based. The following applies: Sus scrofa. A general note: In western blotting, separated proteins are transferred to a membrane and probed.

Data set [9] concerns LLC-PK1. Briefly: Inhibition of ERK phosphorylation in pig LLC-PK1 cells at 2.5 to 5 uM preincubated for 2 hrs followed by iodixanol addition measured after 3 hrs by western blot analysis. In kind it is cell-based. The following applies: Sus scrofa.

As for `COc1c(O)cc2oc3cc(O)c(CC=C(C)C)c(O)c3c(=O)c2c1CC=C(C)C` [MANGOSTIN], the inhibition entry in the data set with LLC-PK1 [1], in the data set on LLC-PK1 [6], in the data set with LLC-PK1 [7], in the data set on LLC-PK1 [8] and with LLC-PK1 [9] was “Active” each time. Besides, the Activity entry in the data set on LLC-PK1 [2] was “Dose-dependent effect”; with LLC-PK1 [3], “Non-toxic”; in the data set on LLC-PK1 [4], “Dose-dependent effect”; in the data set with LLC-PK1 [5], “<=90.42%”.
